Results reported in patent US20080280303A1, “G-PROTEIN COUPLED RECEPTORS HIGH-[…]” (priority 2003, published 2008).

Experiments:
Type in all cases: cell-based
D1 dopamine receptor = target: T1, D1 dopamine receptor (Homo sapiens, UniProt P21728); assay: R-SAT cellular proliferation, D1 co-expressed with ras/rapAA, with or without pertussis toxin; settings: 100 ug/ml pertussis toxin; agonist SKF81297; NIH 3T3 cells
T1 construct: expressed in transfected cells; host or cells: NIH 3T3
Protocol: (§1) FIG. 4. Pertussis toxin sensitivity of ras/rap dependent proliferative responses to Gs-coupled and Gi-coupled GPCRs. A) D1 (4 ng per well) and ras/rapAA (20 ng per well) were co-expressed and analyzed for proliferative responses in the presence or absence of 100 ug/ml pertussis toxin in the presence of the indicated concentrations of SKF81297. B) 5HT1E (20 ng per well) and ras/rapAA (20 ng per well) were co-expressed and analyzed for proliferative responses in the presence or absence of 100 ug/ml pertussis toxin in the presence of the indicated concentrations of BRL54443. C) D2 (4 ng/well), alpha2C (20 ng/well), and SST5 (4 ng/well) were each expressed with ras/rapAA (20 ng/well), incubated with the indicated concentrations of ligand and either with or without 100 ng/ml pertussis toxin (PTX) and analyzed for proliferative responses as described above. Control represents the receptors expressed alone.
(§2) Functional assays. […] After five days in culture β-galactosidase levels were measured essentially as described (35). […] After 3 hr the plates were read at 420 nm on a plate-reader (Bio-Tek EL 310 or Molecular Devices). […]

5HT1E serotonin receptor = target: T2, 5HT1E serotonin receptor (Homo sapiens, UniProt P28566); assay: R-SAT cellular proliferation, 5HT1E co-expressed with ras/rapAA, with or without pertussis toxin; settings: 100 ug/ml pertussis toxin; agonist BRL54443; NIH 3T3 cells
T2 construct: expressed in transfected cells; host or cells: NIH 3T3
Protocol: as §1, §2

GPR6 = target: T3, GPR6 (Homo sapiens, UniProt P46095); assay: R-SAT constitutive proliferation, orphan receptor with ras/rapAA and ACII, with or without pertussis toxin; settings: PTX, 100 ng/ml
T3 construct: expressed in transfected cells
Protocol: (§3) FIG. 7. Functional validation and characterization of orphan GPCRs using helper genes. A) The indicated receptors were expressed at two doses either alone, with ras/rapAA (20 ng/well) and ACII (2 ng/well), or Gαq (4 ng/well) and analyzed for constitutive stimulation of cellular proliferation as described above. Control represents the transfection of the same helper genes with vector substituting for receptor. The transfections were all balanced with vector to ensure the same total amount of DNA was transfected in each case. PI hydrolysis assays were carried out using tsa cells transfected with 20 ng/well of each receptor as described in Methods. B) The indicated receptors were expressed at two doses either alone, with ras/rapAA (20 ng/well) and ACII (2 ng/well), or Gαq (4 ng/well) and analyzed for constitutive stimulation of cellular proliferation as described above. Control represents the transfection of the same helper genes with vector substituting for receptor. The transfections were all balanced with vector to ensure the same total amount of DNA was transfected in each case. Cyclic AMP accumulation assays were carried out using HEK293 cells transfected with 20 ng/well of each receptor as described in Methods. C) The indicated receptors were expressed at with ras/rapAA (20 ng/well) and ACII (2 ng/well), incubated in the presence or absence of pertussis toxin (PTX, 100 ng/ml) and analyzed for constitutive stimulation of cellular proliferation as described above. Control represents the transfection of the same helper genes with vector substituting for receptor. D) The indicated receptors were tested for stimulation of cyclic AMP production as described in the experimental methods.
as §2

GPR3 = target: T4, GPR3 (Homo sapiens, UniProt P46089); assay: as above; settings: PTX, 100 ng/ml
T4 construct: expressed in transfected cells
Protocol: as §3, §2

GPR12 = target: T5, GPR12 (Homo sapiens, UniProt P47775); assay: as above; settings: PTX, 100 ng/ml
T5 construct: expressed in transfected cells
T5 sequence (P47775 1-334): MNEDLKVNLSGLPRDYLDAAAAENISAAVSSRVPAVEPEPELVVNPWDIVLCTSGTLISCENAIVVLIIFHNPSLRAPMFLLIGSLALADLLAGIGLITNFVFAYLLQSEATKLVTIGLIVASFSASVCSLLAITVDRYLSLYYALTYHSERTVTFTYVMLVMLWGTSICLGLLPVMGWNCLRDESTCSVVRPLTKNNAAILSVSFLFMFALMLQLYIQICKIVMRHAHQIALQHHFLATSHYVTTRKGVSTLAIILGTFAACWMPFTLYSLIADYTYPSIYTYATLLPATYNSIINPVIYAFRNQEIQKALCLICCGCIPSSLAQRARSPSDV
Protocol: as §3, §2

EPAC = target: T6, EPAC (Homo sapiens, UniProt O95398); assay: R-SAT proliferation, EPAC co-expressed with ras/rapAA, with or without 8-Br cAMP; settings: 250 uM 8-Br cAMP; ras/rapAA 20 ng per well
T6 construct: expressed in transfected cells; host or cells: NIH 3T3
T6 sequence (O95398 1-923): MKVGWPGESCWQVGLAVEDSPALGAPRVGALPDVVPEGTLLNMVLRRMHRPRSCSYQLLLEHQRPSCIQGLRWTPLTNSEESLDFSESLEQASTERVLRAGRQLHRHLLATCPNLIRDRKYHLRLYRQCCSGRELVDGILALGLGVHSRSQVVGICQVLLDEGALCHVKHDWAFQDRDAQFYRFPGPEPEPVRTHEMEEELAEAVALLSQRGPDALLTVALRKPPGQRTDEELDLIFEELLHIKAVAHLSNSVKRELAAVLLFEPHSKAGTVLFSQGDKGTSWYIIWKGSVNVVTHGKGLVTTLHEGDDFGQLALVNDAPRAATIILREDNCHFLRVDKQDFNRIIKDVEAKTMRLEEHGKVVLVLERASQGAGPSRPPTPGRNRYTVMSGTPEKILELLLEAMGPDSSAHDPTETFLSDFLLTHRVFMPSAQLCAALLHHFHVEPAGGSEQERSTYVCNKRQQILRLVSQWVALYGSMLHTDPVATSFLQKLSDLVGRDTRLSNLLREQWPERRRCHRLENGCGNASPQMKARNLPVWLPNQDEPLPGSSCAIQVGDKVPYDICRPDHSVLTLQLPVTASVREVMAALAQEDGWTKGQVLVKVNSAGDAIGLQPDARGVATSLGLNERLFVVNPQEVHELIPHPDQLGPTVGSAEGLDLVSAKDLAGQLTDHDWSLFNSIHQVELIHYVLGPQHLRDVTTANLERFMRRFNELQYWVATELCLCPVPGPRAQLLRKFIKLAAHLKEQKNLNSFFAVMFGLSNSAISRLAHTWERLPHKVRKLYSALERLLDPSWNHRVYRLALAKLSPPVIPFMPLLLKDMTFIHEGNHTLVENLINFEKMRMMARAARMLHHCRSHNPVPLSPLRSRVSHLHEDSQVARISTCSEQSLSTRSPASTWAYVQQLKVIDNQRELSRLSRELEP
Protocol: FIG. 2. Characterization of regulation and signaling properties of ras/rap chimeras. A) Proliferative responses of ras, rap, and ras/rap measured in R-SAT. 4 ng/well each of wild-type or GTPase deficient (V 12) mutants of ras, rap1A, or ras/rap1A (24) were transfected and analyzed for proliferative responses as described in Methods. B & C) Rap-selective exchange factors activate cellular proliferation in a ras/rap chimera dependent manner. B) Synergy of EPAC with ras/rap chimeras. Two ng per well of the rap selective exchange factor EPAC was co-expressed with 20 ng per well of either rap1B, ras/rap1A, ras/rap1B, ras/rapAA, or control vector and analyzed for proliferative responses as described above. C) Synergy of C3G with ras/rap chimeras. Twenty ng per well of the rap selective exchange factor C3G (68) was co-expressed with 20 ng per well of either rap1B, ras/rap1A, ras/rap1B, ras/rapAA, or control vector and analyzed for proliferative responses as described above. D) The indicated doses (ng per well) of EPAC were co-expressed with 20 ng per well of ras/rapAA in the presence or absence of 250 uM 8-Br cAMP and analyzed for proliferative responses as described above. […] Either 10 ng per well of control vector, ras or ras/rapAA was co-expressed with EPAC (2 ng per well), C3G (10 ng per well), or Sos2 (10 ng per well) and analyzed for proliferative responses. […]

T4 sequence (P46089 whole entry, species assumed): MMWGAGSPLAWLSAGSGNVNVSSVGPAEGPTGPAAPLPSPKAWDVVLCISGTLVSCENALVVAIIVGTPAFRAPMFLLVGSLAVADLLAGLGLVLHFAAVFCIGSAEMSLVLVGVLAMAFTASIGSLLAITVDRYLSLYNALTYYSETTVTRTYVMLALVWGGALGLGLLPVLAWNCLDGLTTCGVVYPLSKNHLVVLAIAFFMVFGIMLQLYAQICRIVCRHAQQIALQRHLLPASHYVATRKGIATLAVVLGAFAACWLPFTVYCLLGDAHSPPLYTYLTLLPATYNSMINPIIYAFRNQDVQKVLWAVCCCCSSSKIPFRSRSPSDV
T2 sequence (P28566 whole entry): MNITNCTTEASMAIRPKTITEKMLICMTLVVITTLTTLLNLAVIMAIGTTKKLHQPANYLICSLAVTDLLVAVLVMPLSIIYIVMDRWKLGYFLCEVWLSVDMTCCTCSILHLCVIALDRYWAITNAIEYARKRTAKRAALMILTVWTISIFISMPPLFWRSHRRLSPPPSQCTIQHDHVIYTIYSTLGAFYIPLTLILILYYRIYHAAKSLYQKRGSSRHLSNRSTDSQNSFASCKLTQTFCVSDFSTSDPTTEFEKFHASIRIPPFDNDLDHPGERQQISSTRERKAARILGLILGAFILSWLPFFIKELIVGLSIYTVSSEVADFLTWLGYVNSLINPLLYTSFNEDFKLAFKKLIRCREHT
T3 sequence (P46095 whole entry, species assumed): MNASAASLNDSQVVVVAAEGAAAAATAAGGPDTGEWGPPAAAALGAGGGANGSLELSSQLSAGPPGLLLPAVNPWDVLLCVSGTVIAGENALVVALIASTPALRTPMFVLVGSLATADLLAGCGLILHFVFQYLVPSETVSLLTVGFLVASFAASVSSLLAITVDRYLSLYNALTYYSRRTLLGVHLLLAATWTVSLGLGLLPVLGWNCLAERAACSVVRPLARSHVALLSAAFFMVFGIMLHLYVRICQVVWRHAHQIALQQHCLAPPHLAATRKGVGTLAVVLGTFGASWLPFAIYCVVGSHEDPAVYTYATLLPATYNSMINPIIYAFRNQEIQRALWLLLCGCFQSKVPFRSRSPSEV
T1 sequence (P21728 whole entry): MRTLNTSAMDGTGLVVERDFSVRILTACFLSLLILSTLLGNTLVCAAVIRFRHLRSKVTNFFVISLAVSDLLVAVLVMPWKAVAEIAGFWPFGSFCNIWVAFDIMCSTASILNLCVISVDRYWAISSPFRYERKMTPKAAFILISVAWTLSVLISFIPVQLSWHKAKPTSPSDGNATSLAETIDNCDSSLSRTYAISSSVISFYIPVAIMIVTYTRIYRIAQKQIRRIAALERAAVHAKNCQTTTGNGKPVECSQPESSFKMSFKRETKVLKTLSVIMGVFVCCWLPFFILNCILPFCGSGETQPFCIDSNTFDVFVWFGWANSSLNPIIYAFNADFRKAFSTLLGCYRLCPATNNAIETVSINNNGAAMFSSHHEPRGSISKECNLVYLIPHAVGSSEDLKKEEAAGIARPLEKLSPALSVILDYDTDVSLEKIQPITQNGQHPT

Compound	effect on ras/rap dependent responses to D1 (D1 dopamine receptor)	effect on ras/rap dependent responses to 5HT1E (5HT1E serotonin receptor)	effect on helper gene dependent constitutive response to GPR6 (GPR6)	effect on helper gene dependent constitutive response to GPR3 (GPR3)	effect on helper gene dependent constitutive response to GPR12 (GPR12)	stimulation of EPAC to induce ras/rap-dependent responses (EPAC)
pertussis toxin	did not block, and slightly increased	completely blocked	significantly blunted	hardly affected	hardly affected	
Nc1ncnc2c1nc(Br)n2[C@@H]1O[C@@H]2COP(=O)(O)O[C@H]2[C@H]1O [8-Br cAMP]						stimulated
